Target: T1, human TLR8 (Homo sapiens, UniProt Q9NR97)
T1 construct: expressed in transfected cells; host or cells: HEK293 (ATCC CRL-1573), pIRES vector, G-418 selected
T1 sequence (Q9NR97 27-1041): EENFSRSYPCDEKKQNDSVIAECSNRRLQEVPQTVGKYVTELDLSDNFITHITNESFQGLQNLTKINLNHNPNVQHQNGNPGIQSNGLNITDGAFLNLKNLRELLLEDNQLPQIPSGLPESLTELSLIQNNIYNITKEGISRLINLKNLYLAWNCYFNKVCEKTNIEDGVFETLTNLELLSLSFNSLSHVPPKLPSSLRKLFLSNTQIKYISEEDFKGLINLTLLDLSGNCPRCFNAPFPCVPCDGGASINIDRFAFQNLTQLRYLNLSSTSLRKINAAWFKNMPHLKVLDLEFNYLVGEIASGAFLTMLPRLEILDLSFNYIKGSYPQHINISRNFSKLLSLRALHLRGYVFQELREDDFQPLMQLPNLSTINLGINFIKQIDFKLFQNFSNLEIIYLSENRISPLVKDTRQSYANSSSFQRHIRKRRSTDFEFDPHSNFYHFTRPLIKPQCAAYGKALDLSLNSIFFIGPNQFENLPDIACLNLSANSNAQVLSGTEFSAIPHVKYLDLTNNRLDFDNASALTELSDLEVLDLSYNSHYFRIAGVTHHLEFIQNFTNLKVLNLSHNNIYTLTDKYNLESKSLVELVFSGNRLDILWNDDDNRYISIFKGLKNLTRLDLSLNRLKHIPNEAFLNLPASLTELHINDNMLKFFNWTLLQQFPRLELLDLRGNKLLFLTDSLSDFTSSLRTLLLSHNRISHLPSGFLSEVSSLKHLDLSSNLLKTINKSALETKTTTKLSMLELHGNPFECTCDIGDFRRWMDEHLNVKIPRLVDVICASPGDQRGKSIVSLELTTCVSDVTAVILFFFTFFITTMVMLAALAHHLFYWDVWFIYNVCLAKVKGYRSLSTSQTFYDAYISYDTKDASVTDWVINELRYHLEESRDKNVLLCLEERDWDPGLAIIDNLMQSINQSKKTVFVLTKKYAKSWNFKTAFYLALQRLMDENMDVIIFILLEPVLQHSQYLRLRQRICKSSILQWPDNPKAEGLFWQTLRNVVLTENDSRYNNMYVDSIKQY
Assay: NFκB-luciferase reporter assay in HEK293 cells transfected with human TLR8 (HEK293-TLR8)
Format: cell-based
Conditions: HEK293-TLR8, 10 μM IRM, 16 hours
Method: A compound was identified as increasing cellular activity mediated through a given TLR if it induced at least a two-fold increase in NFκB-induced luciferase signal compared to the control.
HEK293 medium was prepared from 90% Minimum Essential Medium (MEM) with 2 mM L-glutamine and Earle's Balanced Salt Solution (Invitrogen Corp., Rockville, Md.) adjusted to contain 1.5 g/L sodium bicarbonate, 0.1 mM non-essential amino acids, and 1.0 mM sodium pyruvate; 10% heat-inactivated fetal calf serum. HEK293 cells were cultured by incubating cells in HEK293 medium overnight at 37° C., 8% CO2.
The cells were co-transfected with (1) pIRES (BD Biosciences Clontech, Palo Alto, Calif.) either (a) unmodified (HEK293-vector), (b) containing an expressible human TLR7 gene (HEK293-TLR7), or (c) containing an expressible human TLR8 gene (HEK293-TLR8), and (2) NFκB-luc reporter (Stratagene, La Jolla, Calif.) in a 10:1 ratio with Fugene 6 transfection reagent (Roche Diagnostics Corp., Indianapolis, Ind.) following the manufacturer's instructions.
The cells were stimulated with 1 μL of IRM compounds at 1 mM in DMSO (final IRM concentration of 10 μM) or 1 μL DMSO as a control. The plates were then incubated an additional 16 hours at 37° C., 5% CO2. The luciferase signal was read using the LucLite kit (Packard Instrument Co., Meriden, Conn.). Luminescence was measured on an LMAX luminometer (Molecular Devices Corp., Sunnyvale, Calif.).

SMILES | TLR8: fold increase of NFκB-induced luciferase signal compared to a DMSO control [fold increase]
CCOCc1nc2c(N)nc3ccccc3c2n1CC(C)C [IRM1, 2-(ethoxymethyl)-1-(2-methylpropyl)-1H-imidazo[4,5-c]quinolin-4-amine] | 1.02
COCCc1nc2c(N)nc3ccccc3c2n1CCOCCN(C)C(=O)C1CCCCC1 [IRM3, N-(2-{2-[4-amino-2-(2-methoxyethyl)-1H-imidazo[4,5-c]quinolin-1-yl]ethoxy}ethyl)-N-methylcyclohexanecarboxamide] | 1.14
CCCCc1nc2c(N)nc3ccccc3c2n1CCCCCS(C)(=O)=O [IRM6, 2-butyl-1-[5-(methylsulfonyl)pentyl]-1H-imidazo[4,5-c]quinolin-4-amine] | 0.90
CCc1nc2c(N)nc3ccccc3c2n1CCCCNC(=O)C1CCCCC1 [IRM8, N-[4-(4-amino-2-ethyl-1H-imidazo[4,5-c]quinolin-1-yl)butyl]cyclohexanecarboxamide] | 0.99

Further lines, results first:

TLR8: fold increase of NFκB-induced luciferase signal compared to a DMSO control [fold increase] | SMILES
4.18 | CCc1nc2c(N)nc3ccccc3c2n1CCCCSc1cc(Cl)cc(Cl)c1 [IRM14, 1-{4-[(3,5-dichlorophenyl)thio]butyl}-2-ethyl-1H-imidazo[4,5-c]quinolin-4-amine]
8.64 | CCOCc1nc2c(N)nc3c(c2n1CC(C)(C)O)CCCC3 [IRM16, 4-amino-2-ethoxymethyl-α,α-dimethyl-6,7,8,9-tetrahydro-1H-imidazo[4,5-c]quinoline-1-ethanol]
7.25 | COCCc1nc2c(N)nc3ccccc3c2n1CCOCCNC(=O)Nc1ccccc1 [IRM19, N-(2-{2-[4-amino-2-(2-methoxyethyl)-1H-imidazo[4,5-c]quinolin-1-yl)ethoxy}ethyl)-N′-phenylurea]
5.92 | CCC(C)NC(=S)NCCn1c(CCOC)nc2c(N)nc3ccccc3c21 (stereo not drawn) [IRM21, N-{2-[4-amino-2-(2-methoxyethyl)-1H-imidazo[4,5-c]quinolin-1-yl]ethyl}-N′-sec-butylthiourea]
7.37 | COCCc1nc2c(N)nc3c(c2n1CC(C)(C)NS(C)(=O)=O)CCCC3 [IRM22, N-{2-[4-amino-2-(2-methoxyethyl)-6,7,8,9-tetrahydro-1H-imidazo[4,5-c]quinolin-1-yl]-1,1-dimethylethyl}methanesulfonamide]

Reference: patent US20040171086A1, “Selective modulation of TLR-mediated biological activity” (3M Innovative Properties Company, priority 2003, published 2004)
